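Cultured in 96-well plates, cells were exposed to test compound for 48 hours across five concentrations. GI50 = concentration required for 50% inhibition of growth.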 Active and inactive are the calls of the source. Cut-off read from the data, not from the text of the source: active = GI50 up to about 1.1 µM and inactive = higher.
What was measured:
Experiment in all cases: NCI anticancer screen, dose series, 48 h
T47D = system: T47D
MDA-N = system: MDA-N
HCC 2998 = system: HCC 2998
MDA-MB-231 = system: MDA-MB-231
MDA-MB-435 = system: MDA-MB-435
DU-145 = system: DU-145
HOP-92 = system: HOP-92

Measured: GI50

O=C(O)C1(Cc2ccccc2)Cc2ccccc2C1
inactive: T47D > 100 µM | MDA-N > 100 µM | HCC 2998 > 100 µM | MDA-MB-231 > 100 µM | MDA-MB-435 > 100 µM | DU-145 > 100 µM

CC12CCC3=C(CSC4=C3CSc3ccccc34)C1=CCCC2=O (centres undefined)
inactive: HCC 2998 47.4 µM

Nc1nc(=O)[nH]c2c1cnn2COCCO
inactive: HOP-92 > 100 µM

C[C@H]1SC(c2ccc(Cl)cc2Cl)N(NC(=O)c2ccncc2)C1=O (some centres undefined)
inactive: T47D 37.1 µM | HOP-92 45.7 µM | MDA-N 23 µM | MDA-MB-231 33.9 µM | MDA-MB-435 23.9 µM | DU-145 38.1 µM

Source: ChEMBL document CHEMBL1201862, “PubChem BioAssay data set” (2004)
